Measured values reported in US10696671B2, “Imidazo[1,2-A]pyridine derivatives, methods for preparing the same and use thereof” (Jeil Pharmaceutical Co., Ltd., priority 2016, dated 2020).
pIC50: −log10 of the molar value.

Tests used:
[1] = target: T1, proton pump (H+/K+-ATPase), porcine gastric vesicles (Sus scrofa, UniProt P19156); assay: Inhibitory effects against proton pump (H+/K+-ATPase) activity, malachite green phosphate assay; type: biochemical; conditions: pH 6.4, 37° C., K+-dependent activity
T1 construct: reaction buffer (50 mmol/L Tris-Hepes buffer, pH 6.4) containing porcine gastric vesicles; from tissue; host or cells: porcine gastric mucosa (gastric vesicles prepared by centrifugation)
Experimental: Test Example 1: Preparation of Gastric Vesicles
Gastric vesicles used in the experiment were prepared by separation from porcine gastric mucosa according to a centrifugation method [Saccomani G, et al., A Nonelectrogenic H^+ Pump in Plasma Membranes of Hog Stomach, J Biol Chem., 1976, 251 (23), 7690-8]. Next, the protein content of the gastric vesicles was quantified using a bicinchoninic acid kit [Smith P K, et al., Measurement of protein using bicinchoninic acid, Anal Biochem., 1985, 150 (1), 76-85)].
Test Example 2: Measurement of Inhibitory Effects Against Proton Pump (H^+/K^+-ATPase) Activity
The inhibitory effects of the compounds against proton pump activity were calculated based on the pump activity determined in the presence of K^+ ions excluding the pump activity determined in the absence of K^+ ions. The inhibitory effects against proton pump activity were measured in 96-well plates, and all reactions were performed with a reaction volume of […] at 37° C. Specifically, 10 μm of valinomycin and each concentration of each compound were pre-incubated in a reaction buffer (50 mmol/L Tris-Hepes buffer, pH 6.4) containing porcine gastric vesicles for 15 minutes. For negative and positive control groups, 1% DMSO was added to buffer, and for test groups, 1% DMSO and a dilution of each concentration of each compound were added. Next, 0.2 mmol/L of adenosine triphosphate (ATP) was added to the reaction buffer and incubated at 37° C. for 40 minutes. After completion of the incubation, a malachite green solution was added to the reaction buffer and incubated for 30 minutes, and the amount of inorganic phosphate in the reaction buffer was measured by colorimetry using a malachite green phosphate assay Kit (Bioassay Systems). For colorimetry, the OD (optical density) at 620 nm was measured using a microplate reader [Synergy H4, hybrid multimode microplate reader, BioTek]. The percent inhibition of proton pump (H^+/K^+-ATPase) was determined based on the OD value of the control group and the OD values of various concentrations of the test compounds, and the IC50 of each test compound was calculated using the Logistic 4-parameter function of Sigmaplot 8.0 program.

[2] = system: esophageal injury in reflux esophagitis models; assay: Inhibitory effects against esophageal injury in reflux esophagitis models; type: in vivo, Sprague Dawley (SD) rats; conditions: Rattus norvegicus; percent inhibition of esophageal injury area vs control; rats, 2 mg/kg oral 1 hour before ligation, measured 6 hours after ligation; read-out: GERD (rat/mpk)
Experimental: Test Example 3: Inhibitory Effects against Esophageal Injury in Reflux Esophagitis Models The inhibitory effects of the compounds of the present disclosure against esophageal injury in reflux esophagitis models were evaluated according to the method of Nakamura [Nakamura K, et al., Effects of sodium polyacrylate (PANa) on acute esophagitis by gastric juice in rats, Jpn J Pharmacology, 1982, 32, 445-56]. Male Sprague Dawley (SD) rats (weighing 180-210 g) were divided into X groups (n=6) and fasted without water for 24 hours. Then, the control group was administered orally with only 10% DMSO, 10% Cremophor EL and 80% water, and the other groups were administered orally with 2 mg/kg/2 ml of each test compound together with 10% DMSO, 10% Cremophor EL and 80% water. At 1 hour after administration of the excipients and each compound, the abdominal cavity of each rate was incised under isoflurane anesthesia, and the pylorus was ligated, and the boundary between the anterior portion and the body was also ligated. At 6 hours after ligation, the test animals were euthanized, and the esophagus ranging from the thyroid to the cardiac portion was carefully extracted. The extracted esophagus was incised in a longitudinal direction and spread so as to expose the mucosa and was then fixed, after which the area of esophageal injury was measured. Percent (%) inhibitory activity of test compounds={(total esophageal injury area of control group−esophageal injury area of group treated with test compound)/total esophageal injury area of control group}×100.

[3] = system: histamine-stimulated gastric acid secretion; assay: Inhibitory effects against histamine-stimulated gastric acid secretion in pylorus-ligated rats (Shay's rat models); type: in vivo, Sprague-Dawley (SD) rats; conditions: percent inhibition of total acid output vs control, 2 mg/kg oral 1 hour before pylorus ligation, histamine 30 mg/kg s.c., 3 hours after ligation
Experimental: Test Example 4: Inhibitory Effects against Histamine-Stimulated Gastric Acid Secretion in Pylorus-Ligated Rats The inhibitory effects of the compounds of the present disclosure against histamine-stimulated gastric acid secretion were evaluated using Shay's rat models [Shay H, et al. A simple method for the uniform production of gastric ulceration in the rat, Gastroenterology, 1945, 5, 43-61]. Male Sprague-Dawley (SD) rats (weighing 180-210 g) were divided into X groups (n=7) and fasted with only water access for 24 hours. At 1 hour before pylorus ligation, the control group was administered orally with only 10% DMSO, 10% Cremophor EL and 80% water, and the other groups were administered orally with 2 mg/kg/2 ml of each compound together with 10% DMSO, 10% Cremophor EL and 80% water. The abdominal cavity of each rate was incised under isoflurane anesthesia, and the pylorus was ligated. Immediately after ligation, histamine 2HCl was administered subcutaneously to each rat at a dose of 30 mg/kg/10 ml. At 3 hours after ligation, the test animals were euthanized, and the gastric content was extracted. The extracted gastric content was centrifuged at 3,000×g for 10 minutes, and the supernatant was collected to obtain gastric juice. Next, the acidity of the gastric juice was determined based on the volume of (ueq/ml) of 0.1 N—NaOH required for automatic titration of the gastric juice to pH 7.0, and the acidity of the gastric juice was multiplied by the amount of the gastric juice to determine total acid output. Percent (%) inhibitory activity of test compounds={(total acid output in control group−total acid output in group treated with test compound)/total acid output in control group}×100.

T1 sequence (P19156 2-1034 limits assumed): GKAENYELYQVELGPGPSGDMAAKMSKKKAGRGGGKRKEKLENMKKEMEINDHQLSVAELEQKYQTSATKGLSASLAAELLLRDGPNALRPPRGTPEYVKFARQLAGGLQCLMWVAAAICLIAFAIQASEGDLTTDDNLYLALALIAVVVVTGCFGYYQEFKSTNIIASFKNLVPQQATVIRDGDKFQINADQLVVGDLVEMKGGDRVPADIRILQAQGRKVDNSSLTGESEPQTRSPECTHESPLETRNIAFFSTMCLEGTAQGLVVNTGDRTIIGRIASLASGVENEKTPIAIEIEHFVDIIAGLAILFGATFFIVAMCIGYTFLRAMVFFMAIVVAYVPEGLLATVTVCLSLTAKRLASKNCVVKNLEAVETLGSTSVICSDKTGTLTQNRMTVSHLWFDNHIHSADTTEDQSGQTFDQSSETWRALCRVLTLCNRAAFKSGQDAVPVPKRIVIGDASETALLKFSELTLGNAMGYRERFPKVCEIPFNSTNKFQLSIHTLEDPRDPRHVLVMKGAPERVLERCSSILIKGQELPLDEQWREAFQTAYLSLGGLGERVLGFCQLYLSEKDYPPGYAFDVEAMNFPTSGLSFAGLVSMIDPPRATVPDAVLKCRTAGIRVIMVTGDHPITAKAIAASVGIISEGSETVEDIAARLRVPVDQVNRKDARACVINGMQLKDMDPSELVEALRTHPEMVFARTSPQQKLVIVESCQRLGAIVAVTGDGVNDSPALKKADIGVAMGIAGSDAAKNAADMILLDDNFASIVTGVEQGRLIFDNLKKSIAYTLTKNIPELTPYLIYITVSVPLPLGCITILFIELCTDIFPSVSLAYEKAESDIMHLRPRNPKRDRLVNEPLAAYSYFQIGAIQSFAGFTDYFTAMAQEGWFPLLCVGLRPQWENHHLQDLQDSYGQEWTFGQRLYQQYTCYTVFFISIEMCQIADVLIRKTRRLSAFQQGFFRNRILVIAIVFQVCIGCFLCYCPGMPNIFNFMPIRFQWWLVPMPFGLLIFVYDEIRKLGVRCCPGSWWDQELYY
T1 sequence (P18434 whole entry partner): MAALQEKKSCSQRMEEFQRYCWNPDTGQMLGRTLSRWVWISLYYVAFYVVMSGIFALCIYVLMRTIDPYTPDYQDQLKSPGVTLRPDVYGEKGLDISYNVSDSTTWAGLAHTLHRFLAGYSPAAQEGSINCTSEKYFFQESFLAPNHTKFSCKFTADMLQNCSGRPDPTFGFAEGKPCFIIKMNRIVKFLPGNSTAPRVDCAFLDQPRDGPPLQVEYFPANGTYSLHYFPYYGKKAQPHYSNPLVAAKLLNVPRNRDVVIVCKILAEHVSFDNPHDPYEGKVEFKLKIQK

| pIC50 [1] | Compound | inhibition in vivo at 2 mg/kg [2] | acid output (rat/2 mpk) [3] |
| --- | --- | --- | --- |
| 7.70 | Cc1cccc(C)c1CNc1cc(C(=O)N2CC(O)C2)cn2c(C)c(C)nc12 [Example 1, {8-[(2,6-Dimethylbenzyl)amino]-2,3-dimethylimidazo[1,2-α]pyridin-6-yl}(3-hydroxyazetidin-1-yl)methanone] | 84% | 71% |
| 7.77 | Cc1cccc(C)c1CNc1cc(C(=O)N2CCC2)cn2c(C)c(C)nc12 [Example 6, azetidin-1-yl{8-[(2,6-dimethylbenzyl)amino]-2,3-dimethylimidazo[1,2-α]pyridin-6-yl}methanone] | 100% | 94% |
| 7.26 | Cc1cccc(C)c1CNc1cc(C(=O)N2CC(F)C2)cn2c(C)c(C)nc12 [Example 7, {8-[(2,6-dimethylbenzyl)amino]-2,3-dimethylimidazo[1,2-a]pyridin-6-yl}(3-fluoroazetidin-1-yl)methanone] | 100% | 91% |
| 7.41 | Cc1cccc(C)c1CNc1cc(C(=O)N2CC(CO)C2)cn2c(C)c(C)nc12 [Example 11, {8-[(2,6-dimethylbenzyl)amino]-2,3-dimethylimidazo[1,2-α]pyridin-6-yl}[3-(hydroxymethyl)azetidin-1-yl]methanone] | 97.6% | 78% |
| 7.62 | Cc1cc(F)cc(C)c1CNc1cc(C(=O)N2CC(CO)C2)cn2c(C)c(C)nc12 [Example 39, {8-[(4-fluoro-2,6-dimethylbenzyl)amino]-2,3-dimethylimidazo[1,2-α]pyridin-6-yl}[3-(hydroxymethyl)azetidin-1-yl]methanone] | 98.4% |  |
